# Source: US20250034084A1, “COMPOSITIONS AND METHODS FOR PREVENTING OR TREATING MYCOSIS” (AMTIXBIO CO., LTD., priority 2016, published 2025)
# How the values were obtained:
# [1] = test system: Candida albicans SC5314 (ATCC); assay: Antifungal activity assay (MIC), NCCLS method; assay type: cell-based; conditions: RPMI 1640 medium
# Description: (§1) In order to measure the minimum inhibitory concentration (MIC), strains Candida albicans SC5314 (ATCC), Candida glabrata BG2 (ATCC), and Cryptococcus neoformans var. grubii […] were used. All the strains used in the test examples of the present invention were purchased from Korean Culture Center of Microorganisms (KCCM) and ATCC, and used. […] As a control group, amphotericin B and fluconazole, which are known to have excellent antifungal inhibitory activity with a problem of human toxicity, were used. Specifically, in order to prepare a medium first, 8.4 g of RPMI-1640 powder (Sigma; […]-1L) was added to 900 ml of distilled water. Next, 34.5 g of MOPS was added thereto, to bring the final concentration to 0.165 M. Then, 100 ml of 20% glucose was added thereto, and then the pH of the resultant was adjusted to 7 using NaOH. Next, after performing filtration with a filter, the filtrate was stored in a refrigeration condition at 4° C. for use in the next experiment. The experimental method and procedure for the MIC assay were as follows: […] (c) in a case of Aspergillus fumigatus, a diluent was prepared at a concentration of 1×10^5 conidia/ml; (d) a 96-well plate was used and 100 μl of the solution was added to each well, so that 2 μl of diluted drug was prepared; (e) 200 μl of the solution was added to a well into which the highest concentration of drug was to be added, and dilution was performed by serial dilution; (f) after performing static culture for 48 hours at 37° C., a degree of growth was measured at OD600 and a comparison was made.
# [2] = test system: Candida glabrata BG2 (ATCC); assay: Antifungal activity assay (MIC), NCCLS method; assay type: cell-based; conditions: RPMI 1640 medium
# Description: as §1
# [3] = test system: Cryptococcus neoformans var. grubii H99 (ATCC); assay: Antifungal activity assay (MIC), NCCLS method; assay type: cell-based; conditions: RPMI 1640 medium
# Description: as §1
# [4] = test system: Aspergillus fumigatus strains (KCCM32791, KCCM60031, KCCM60293, KCCM60036, KCCM60031, and KCCM60027); assay: MIC test against several Aspergillus fumigatus strains (FIG. 2); assay type: cell-based
# [5] = test system: Fusarium graminearum (KCTC16656) and Fusarium (KSU11480); assay type: cell-based; conditions: YPD solid medium, FIG. 4
# [6] = test system: Trichophyton tonsurans, Trichophyton rubrum, Trichophyton mentagrophytes; assay: Suppressive activity against Trichophytons on YPD solid medium; assay type: cell-based; conditions: six Trichophyton strains
# [7] = test system: Cryptococcus neoformans wild-type (H99S); assay: Drug efficacy in Galleria mellonella insect model infected with C. neoformans
# Description: The wild-type (H99S) strain of Cryptococcus neoformans, which is pathogenic fungi, was inoculated into a yeast extract, peptone, and dextrose (YPD) liquid medium, cultured for 16 hours, and then washed twice with phosphate buffered saline (PBS), to prepare a final sample of 10^6 cells/ml. […] A 4 p1 suspension of C. neoformans prepared was injected into a proleg of larvae, so that 4,000 pathogen cells were infected per larva, in which an automatic injector (PB600-1) manufactured by Hamilton Company, and 100 pl syringes and needles were used. […] A group into which PBS alone was injected each time after the infection with C. neoformans was tested as a positive control, and a group in which both infection and drug injection were replaced with PBS was tested as a negative control. […] The larvae were determined as dead in a case where the larvae became dark-colored and made no movement. […] For significance with the controls, a significance level was determined using the Long-rank (Mantel-Cox) method.
Molecule,MIC C. albicans [1] [µg/mL],MIC C. glabrata [2] [µg/mL],MIC C. neoformans [3] [µg/mL],"inhibitory activity (MIC, average values) compared with amphotericin B [4]",suppressive activity against phytopathogenic fungi [5],suppressive activity against Trichophytons [6],survival rate on day 7 of the infection ([7]; PBS group all died) [%],"survival of larvae on day 3 of the infection ([7]; drug injected 3 h after infection and once every 24 h for two more days, PBS group 60%)"
"CCC(NC)C(=O)NCc1ccc(OCc2cccc(Cl)c2)cc1 (racemic) [Compound 28, (R)/(S)-N-(4-((3-chlorobenzyl)oxy)benzyl)-2-(methylamino)butanamide]",64,64,16,higher inhibitory activity than amphotericin B,–,–,–,–
(R)/(S)-1-((4-((4-(trifluorobenzyl)oxy)benzyl)amino)-1-oxopentane-2-aminium chloride [Compound 26],16,8,4,higher inhibitory activity than amphotericin B,very excellent suppressive activity,excellent suppressive activity,–,–
"CCC(N)C(=O)NCc1ccc(OCc2ccc(C(F)(F)F)cc2)cc1.Cl (racemic) [Compound 22, (R)/(S)-1-oxo-1-((4-((4-(trifluoromethyl)benzyl)oxy)benzyl)amino)butane-2-aminium chloride]",64,32,16,higher inhibitory activity than amphotericin B,–,–,–,–
"CCC(N)C(=O)NCc1ccc(OCc2ccc(Cl)cc2)cc1.Cl (racemic) [Compound 24, (R)/(S)-1-((4-((4-(chlorobenzyl)oxy)benzyl)amino)-1-oxobutane-2-aminium chloride]",64,32,16,–,–,–,–,–
"CN1CCCC1C(=O)NCc1ccc(OCc2cccc(F)c2)cc1 (racemic) [Compound 42, (R)/(s)-1-methyl-N-(4-((3-fluorobenzyl)oxy)benzyl)pyrrolidine-2-carboxamide]",128,128,16,–,–,–,–,–
"Cl.O=C(NCc1ccc(OCc2ccc(C(F)(F)F)cc2)cc1)C1CCCN1 (racemic) [Compound 50, (R)/(S)-2-((4-((4-(trifluoromethyl)benzyl)oxy)benzyl)carbamoyl)pyrrolidi-1-nium chloride]",64,128,8,–,–,–,–,–
"CCC(N)C(=O)NCc1ccc(OCc2cccc(Cl)c2)cc1.Cl (racemic) [Compound 23, (R)/(S)-1-((4-((3-(chlorobenzyl)oxy)benzyl)amino)-1-oxobutane-2-aminium chloride]",64,64,16,–,–,–,–,–
"Cl.O=C(NCc1ccc(OCc2cccc(F)c2)cc1)C1CCCN1 (racemic) [Compound 49, (R)/(S)-2-((4-((3-fluorobenzyl)oxy)benzyl)carbamoyl)pyrrolidi-1-nium chloride]",>128,>128,32,–,–,–,–,–
"CCC(N)C(=O)NCc1ccc(OCc2ccc(F)cc2)cc1.Cl (racemic) [Compound 19, (R)/(S)-1-((4-((4-(fluorobenzyl)oxy)benzyl)amino)-1-oxobutane-2-aminium chloride]",>128,>128,64,–,–,–,–,–
"CCC(N)C(=O)NCc1ccc(OCc2cccc(F)c2)cc1.Cl (racemic) [Compound 18, (R)/(S)-1-((4-((3-(fluorobenzyl)oxy)benzyl)amino)-1-oxobutane-2-aminium chloride]",>128,>128,128,–,–,–,50,all survived
"C[C@@H]1[C@H](O)[C@@H](C)/C=C/C=C/C=C/C=C/C=C/C=C/C=C/[C@H](O[C@@H]2O[C@H](C)[C@@H](O)[C@H](N)[C@@H]2O)C[C@@H]2O[C@](O)(C[C@@H](O)C[C@@H](O)[C@H](O)CC[C@@H](O)C[C@@H](O)CC(=O)O[C@H]1C)C[C@H](O)[C@H]2C(=O)O [AmpB, amphotericin B, reference compound]",0.25,0.5,0.125,–,–,–,–,–
"CCC(NC)C(=O)NCc1ccc(OCc2ccc(Cl)cc2)cc1 (racemic) [Compound 29, (R)/(S)-N-(4-((4-chlorobenzyl)oxy)benzyl)-2-(methylamino)butanamide]",32,32,8,–,–,–,–,–
